Measurements as given in patent US8454977B2, “Non-toxic biofilm inhibitor” (priority 2005, dated 2013).
pKi: −log10 of the molar value. “Also recorded” adds a separate entry of the source.

Experiments:
[1] = tested on: biotinylated viable PAKwt cells; assay type: cell-based, Pseudomonas aeruginosa
[2] = tested on: biotinylated purified PAK pili
P. aeruginosa strain PAK = assay: Epifluorescence microscopy of cells bound to stainless steel, strain PAK; assay type: cell-based, Pseudomonas aeruginosa; conditions: PAK(128-144)ox 51 nM; PAK(134-140) 100 μg/ml; 60 min 37° C.
Experimental: (§1) FIG. 2. Epifluorescence microscopy of stainless steel after binding of P. aeruginosa strains PAK (panels a, b, and c), PAO (panels d, e, and f), K122-4 (panels g, h, and i), KB7 (panels j, k, and l), PAKNP (panels m, n, and o) and PAKMS591 (panels p, q, and r). Viable cells were allowed to incubate directly (panels a, d, g, j, m, and p) with a stainless steel grade 304 surface for 60 min at 37° C. and washed 5 times with 10 mM PBS pH 7.4 containing 0.05% BSA. The cells were then stained using acrydine orange and a 40× objective field was photographed with a Leitz Laborlux microscope equipped with epifluorescent illumination and a Wild automatic exposure 35 mm camera system. Note that bound Pseudomonas cells are stained orange while green fluorescence indicates non-specific interaction of the fluorochrome with the surface. P. aeruginosa strains PAK, PAO, K122-4, KB7, PAKNP, and PAKMS591 were incubated with the synthetic peptide PAK(128-144d)ox (panels b, e, h, k, n, and q respectively) or with synthetic peptide PAK(134-140) (panels c, f, i, l, o, and r respectively).
(§2) Stainless steel plates, prepared and utilized in bacterial binding studies as described above, were incubated in 1 mM Acridine Orange stain for one minute, and thoroughly rinsed with distilled water. […] Micrographs were recorded with Kodak Colormax 35 mm film, processed and digitally scanned immediately after film processing.

P. aeruginosa strain PAO = assay: Epifluorescence microscopy of cells bound to stainless steel, strain PAO; assay type: cell-based, Pseudomonas aeruginosa; conditions: PAK(128-144)ox 51 nM; PAK(134-140) 100 μg/ml; 60 min 37° C.
Experimental: as §1, §2

[3] = tested on: P. aeruginosa strain K122-4; assay: Epifluorescence microscopy of cells bound to stainless steel, strain K122-4; assay type: cell-based, Pseudomonas aeruginosa; conditions: PAK(128-144)ox 51 nM; PAK(134-140) 100 μg/ml; 60 min 37° C.
Experimental: as §1, §2

P. aeruginosa strain KB7 = assay: Epifluorescence microscopy of cells bound to stainless steel, strain KB7; assay type: cell-based, Pseudomonas aeruginosa; conditions: PAK(128-144)ox 51 nM; PAK(134-140) 100 μg/ml; 60 min 37° C.
Experimental: as §1, §2

[4] = tested on: P. aeruginosa strain PAKMS591; assay: Epifluorescence microscopy of cells bound to stainless steel, strain PAKMS591; assay type: cell-based, Pseudomonas aeruginosa; conditions: 60 min 37° C.
Experimental: as §1, §2

[5] = tested on: P. aeruginosa strain PAKNP; assay: Epifluorescence microscopy of cells bound to stainless steel, strain PAKNP; assay type: cell-based, Pseudomonas aeruginosa; conditions: 60 min 37° C.
Experimental: as §1, §2

[6] = tested on: respiratory epithelial cells; conditions: Yu et al., 1996; cited from earlier work

biotinylated purified PAK pili, sequence (P02973 7-150): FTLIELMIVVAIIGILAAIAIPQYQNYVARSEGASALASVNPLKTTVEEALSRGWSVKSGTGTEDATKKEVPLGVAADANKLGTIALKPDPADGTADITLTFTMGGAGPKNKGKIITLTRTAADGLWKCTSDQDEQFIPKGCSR

## Ac-T-L-T-R-T-A-A-D-G-OH (Ac-TLTRTAADG-OH) [PAK(117-125)]
[1]
  effect of peptide on binding of biotinylated PAKwt cells to stainless steel: appears to enhance cell binding to steel rather than inhibiting
[2]
  effect of peptide on binding of biotinylated PAK pili to stainless steel: appears to enhance the binding of pili to steel rather than inhibiting

## Ac-PQYQNYVARSEGASALASVNPLKTTVEEADP-OH [PAK(22-52)]
[1]
  effect of peptide on binding of biotinylated PAKwt cells to stainless steel: do not inhibit cell binding
[2]
  effect of peptide on binding of biotinylated PAK pili to stainless steel: do not inhibit the binding of pili

## Ac-KCTSDQDEQFIPKGCSK-OH (cysteine pairing not given here) [PAK(128-144)ox]
[1]; read-out: apparent Ki of the peptide inhibition of PAKwt binding to steel
  pKi: ~8.40
P. aeruginosa strain PAK
  effect on binding of strain PAK to stainless steel (microscopy): reduced the binding
P. aeruginosa strain PAO
  effect on binding of strain PAO to stainless steel (microscopy): reduced the binding; also recorded: substantially inhibits; also recorded: effectively inhibits the adherence
[3]
  effect on binding of strain K122-4 to stainless steel (microscopy): reduced the binding; also recorded: substantially inhibits; also recorded: effectively inhibits the adherence
P. aeruginosa strain KB7
  effect on binding of strain KB7 to stainless steel (microscopy): reduced the binding; also recorded: substantially inhibits; also recorded: effectively inhibits the adherence
[4]
  effect on binding of strain PAKMS591 (fliC-) to stainless steel (microscopy): reduced the binding; also recorded: inhibited the binding
[5]
  effect on binding of strain PAKNP (pilA-) to stainless steel (microscopy): did not reduce the binding; also recorded: had no effect
[2]; read-out: apparent Ki of the peptide inhibition of PAK pilus binding to steel
  pKi: ~9.70

## Ac-D-E-Q-F-I-P-K-amide (Ac-DEQFIPK-NH2) [PAK(134-140)]
[1]
  effect of peptide on binding of biotinylated PAKwt cells to stainless steel: do not inhibit cell binding; also recorded: did not inhibit
P. aeruginosa strain PAK
  effect on binding of strain PAK to stainless steel (microscopy): did not inhibit the binding; also recorded: minimal effect
P. aeruginosa strain PAO
  effect on binding of strain PAO to stainless steel (microscopy): did not inhibit the binding; also recorded: minimal effect
[3]
  effect on binding of strain K122-4 to stainless steel (microscopy): did not inhibit the binding; also recorded: nor did it inhibit the binding; also recorded: minimal effect
P. aeruginosa strain KB7
  effect on binding of strain KB7 to stainless steel (microscopy): did not inhibit the binding; also recorded: nor did it inhibit the binding; also recorded: minimal effect
[4]
  effect on binding of strain PAKMS591 (fliC-) to stainless steel (microscopy): did not inhibit the binding
[5]
  effect on binding of strain PAKNP (pilA-) to stainless steel (microscopy): did not inhibit the binding
[6]
  affinity for epithelial cells / mucosal cell surface receptors: low affinity
